US20240050463A1, “THERAPEUTIC COMPOSITIONS AND METHODS FOR TREATING HEPATITIS B” (ARBUTUS BIOPHARMA CORPORATION, priority 2016, published 2024)

System: hepatitis B virus (HBV)
Experiment: Serum HBsAg in AAV1.2 mouse model of HBV, enzyme immunoassay
Type: in vivo, C57/Bl6 mice
Conditions: D0 (pre-treatment); Compound 20 3.0 mg/kg oral twice daily Days 0-28; HBV siRNA 0.3 mg/kg IV Day 0
Description: This viral vector contains a 1.2-fold overlength copy of the HBV genome and expresses HBV surface antigen (HBsAg) amongst other HBV products. Serum HBsAg expression in mice was monitored using an enzyme immunoassay. Animals were sorted (randomized) into groups based on serum HBsAg levels such that a) all animals were confirmed to express HBsAg and b) HBsAg group means were similar to each other prior to initiation of treatments.
Animals were treated with Compound 20 as follows: Starting on Day 0, a 3.0 mg/kg dosage of Compound 20 was administered orally to animals on a twice-daily frequency for a total of 56 doses between Days 0 and 28. Compound 20 was dissolved in a co-solvent formation for administration. Negative control animals were administered either the co-solvent formulation alone, or were not treated with any test article. Animals were treated with lipid nanoparticle (LNP)-encapsulated HBV-targeting siRNAs as follows: On Day 0, an amount of test article equivalent to 0.3 mg/kg siRNA was administered intravenously. The HBsAg expression levels for each treatment were compared against the Day 0 (pre-dose) values for that group.
The effect of these treatments was determined by collecting blood on Days 0 (pre-treatment), 7, 14, and 28 and analyzing it for serum HBsAg content.

COCCCOc1cc2c(cc1OC)-c1cc(=O)c(C(=O)O)cn1[C@H](C(C)C)C2 [Compound 20]
Serum HBsAg, percentage of individual animal pre-treatment baseline value at Day 0 (mean ± SEM): 100 ± 0%
